Laboratory results as given in patent publication US20170224654A1, “PHARMACEUTICAL COMPOSITIONS AND METHODS FOR COUNTERING CHEMOTHERAPY INDUCED CARDIOTOXICITY” (Stem Cell Theranostics, Inc., priority 2016, published 2017).
Each block holds one compound with its values, some of them ahead of it.

Key:
[1] = system: Human iPSC-derived cardiomyocytes; assay: DOX-induced contractility dysfunction (Pulse videos), 48 hours; type: cell-based
cardiomyocytes = assay: Bortezomib-induced cell death; type: cell-based, human; settings: 100 μM myricetin
[2] = system: Human iPSC-derived cardiomyocytes; assay: DOX-induced DNA double strand break (γH2AX immunostaining); type: cell-based; settings: DOX 0.5 μM plus 100 μM agent, 48 hours
TOPOIIα mRNA expression = assay: mRNA expression level in cardiomyocytes; type: cell-based
TOPOIIβ = target: T1, TOPOIIβ (Homo sapiens, UniProt Q02880); assay: kDNA decatenation assay; type: biochemical; settings: for IC50: 37° C., 30 min, n=3, read-out: IC50 of TOPOIIβ enzyme activity
T1 construct: purchased Inspiralis

[3] = system: Human iPSC-derived cardiomyocytes; assay: Mitochondrial toxicity imaging (TMRM) after doxorubicin, 2 days; type: cell-based; settings: 1.25 μM doxorubicin + 79 μM myricetin vs 1.25 μM doxorubicin alone
Protocol: Following treatment, the samples were incubated with a tetramethylrhodamine methyl ester (TMRM) dye to indicate mitochondrial health, and Hoechst 33342 to identify cell nuclei. Cells were imaged using the INCell Analyzer2200.

[4] = system: human induced pluripotent stem cell-derived cardiomyocytes (iPSC-CM)
[5] = system: sorafenib treated cardiomyocytes; assay: Sorafenib-induced contractile dysfunction; type: cell-based, human; settings: 5 μM sorafenib
[6] = system: topoisomerase IIβ protein in human iPSC-derived cardiomyocytes; assay: TOPOIIβ protein level (immunostaining), 24 hours; type: cell-based; settings: 100 μM
Protocol: To further distinguish molecular mechanisms of MYR from those of DEX and also to determine whether the inhibitory effects of MYR on TOPOII observed in the decatenation assays above is due to degradation of TOPOII proteins, human iPSC-derived cardiomyocytes were treated with DMSO, DEX (100 μM), or MYR (100 μM) for 24 hours, and immunostained with antibody against topoisomerase IIβ (BD Biosciences).
Cells were imaged using INCell Analyzer2200 (GE) and […] protein levels were quantified. Student T-Test (unpaired, two-tailed) was used to determine the significance of the difference.

TOPOIIβ mRNA expression = assay: mRNA expression level in cardiomyocytes; type: cell-based
patient = assay: Patient treatment examples (echocardiogram / electrocardiogram); type: in vivo, human; settings: for QT prolongation (in words): doxorubicin (5 mg/mL) given with the protective agent
Protocol: A patient, with a history of heart disease, is diagnosed with breast cancer. Due to an increased risk for heart failure, the patient is unable to receive the standard treatment regimen of doxorubicin, which is known to induce cardiotoxicity. Instead, the caregiver administers a co-formulation of doxorubicin (10 mg) and vitexin (100 mg). An echocardiogram is performed and blood flow rate is measured to determine if the therapy has a cardiotoxic effect in the patient.
A patient is diagnosed with liver cancer. […] The patient presents with a 20 ms QT prolongation. […] The patient is able to continue receiving treatment over several weeks after which a tissue biopsy is performed to confirm the liver cancer has been eradicated.
(§1) A patient is diagnosed with stage II lung cancer, and presents with bradycardia. Due to an increased risk for heart failure, the patient is unable to receive the standard treatment regimen of doxorubicin, which is known to affect cardiac contraction and induce bradycardia. Instead, the caregiver administers a co-formulation of doxorubicin (10 mg) and myricetin (100 mg). An electrocardiogram is used to monitor the patient's heart rate. […] The lung cancer is down-staged to stage 1, and the cancer is successfully removed with surgery.
as §1, with “myricetin (100 mg) 24 hours before administration” for “a co-formulation”, “(10” for “(10 mg) and myricetin (100”

TOPOIIα = target: T2, TOPOIIα (Homo sapiens, UniProt P11388); assay: kDNA decatenation assay; type: biochemical
T2 construct: purchased Inspiralis

A549 cells (lung cancer) = assay: Cell viability with doxorubicin (CellTiter-Glo); type: cell-based; settings: co-treated with increasing concentrations of doxorubicin, 72 hours
Protocol: A549 cells (lung cancer) were cultured for 1 day before performing experiments. […] XLFit was used for curve fitting.

[7] = system: Human iPSC-derived cardiomyocytes; assay: Cytotoxicity of MYR analogs to cardiomyocytes; settings: for cytotoxicity / toxic effects to cardiomyocytes (in words): at or below 100 μM as stated
[8] = system: cardiomyocytes derived from human induced pluripotent stem cells; assay: Doxorubicin-induced mitochondrial toxicity (TMRM-negative cells), 48 hours; type: cell-based; settings: 1 μM doxorubicin, KAE 17 μM, AMB 0.76 μM, MES 10 μM, NAC 50 μM, Dex 160 μM, VIT 115 μM
Protocol: Following treatment, the samples were incubated with a tetramethylrhodamine methyl ester (TMRM) dye to indicate mitochondrial health, and a second dye to identify cell nuclei.

[9] = system: Doxorubicin treated human iPSC-derived cardiomyocytes; assay: iPSC-CM protection of MYR analogs against doxorubicin; type: cell-based; settings: discussion of Table 1
[10] = system: MDA-MB-231 breast cancer cells; assay: Cell viability with doxorubicin (CellTiter-Glo); type: cell-based; settings: co-treated with increasing concentrations of doxorubicin, 72 hours
[11] = system: induced pluripotent stem cell-derived cardiomyocytes; assay: Long term toxicity on electrophysiology (active electrodes, MEA); type: cell-based; settings: for number of active electrodes relative to the mock-treated sample (in words): various concentrations, at least 5 days
Protocol: Samples were either mock-treated with 0.1% DMSO, or treated with various concentrations of the indicated drug. Following treatment, the percentage of active electrodes in each sample was measured for at least 5 days. Percentage of active electrodes was quantified and graphed in a time course.

[12] = system: TOPOII enzymes (TOPOIIα and TOPOIIβ); assay: kDNA decatenation assay, TOPOIIα and TOPOIIβ jointly; type: biochemical; settings: discussion of Table 1
Protocol: 200 ng of kinetoplast DNA (kDNA) was incubated with one enzymatic unit of TOPOIIα or TOPOIIβ enzyme (Inspiralis) and with various concentrations of MYR or DEX at 37° C. for 30 min. The reaction was then separated on 1% agarose gel for visualization of decatenated DNA (bottom band). The efficiency of catalytic inhibition was quantified by measuring the relative intensity of the band.

in vitro = settings: human
[13] = system: induced pluripotent stem cell-derived cardiomyocytes; assay: Acute toxicity on electrophysiology (MEA beat period, field potential duration); type: cell-based; settings: lower drug concentration, at least 20 minutes
Protocol: Samples were either mock-treated with 0.1% DMSO, or treated with increasing concentrations of the indicated drug for at least 20 minutes. Cardiomyocytes were treated with the hERG potassium channel blocker E4031 as a control. Following treatment, the beat period and field potential duration (FPD) were measured in each sample using the MEA.

[14] = system: human induced pluripotent stem cell-derived cardiomyocytes; assay: Long-term mitochondrial health (TMRM), 7 days; type: cell-based; settings: 1 μM doxorubicin alone or with dexrazoxane or vitexin
Protocol: Following treatment, the samples were incubated with a tetramethylrhodamine methyl ester (TMRM) dye to indicate mitochondrial health. […] Representative images are presented for each sample, wherein loss of TMRM signal represents mitochondrial toxicity.

[15] = system: human induced pluripotent stem cell-derived cardiomyocytes; assay: Electrophysiological activity with doxorubicin (active electrodes, MEA); type: cell-based; settings: 1 μM doxorubicin, in the absence of vitexin
Protocol: Samples were either mock-treated with 0.1% DMSO, treated with 1 μM doxorubicin, or co-treated with 1 μM doxorubicin and various concentrations of vitexin (e.g., 11.6 μM, 37 μM, or 116 μM). Following treatment, the percentage of active electrodes in each sample was measured for 72 hours. Percentage of active electrodes was quantified and graphed in a time course (FIG. 28A). The average number of active electrodes per well was quantified and graphed at 30 hours after the treatment (FIG. 28B, n=6, standard deviation is shown as error bars).

C57BL/6 mice = assay: Acute anthracycline-induced cardiotoxicity model, echocardiography; type: in vivo; settings: Doxorubicin 20 mg/kg single intraperitoneal injection, day 5
From the text: An acute anthracycline-induced cardiotoxicity model was established in 9-10 week old C57BL/6 mice obtained from The Jackson Laboratory. […] General health of the animals was monitored on a daily basis throughout the course of the study. […] Left ventricular (LV) M-mode images were obtained in the two-dimensional short axis view close to the papillary muscles. Tracings of endocardial tissue during systole and diastole were made off line.

[16] = agent alone, DOX at 24 and 48 hours

T1 sequence (Q02880 whole entry): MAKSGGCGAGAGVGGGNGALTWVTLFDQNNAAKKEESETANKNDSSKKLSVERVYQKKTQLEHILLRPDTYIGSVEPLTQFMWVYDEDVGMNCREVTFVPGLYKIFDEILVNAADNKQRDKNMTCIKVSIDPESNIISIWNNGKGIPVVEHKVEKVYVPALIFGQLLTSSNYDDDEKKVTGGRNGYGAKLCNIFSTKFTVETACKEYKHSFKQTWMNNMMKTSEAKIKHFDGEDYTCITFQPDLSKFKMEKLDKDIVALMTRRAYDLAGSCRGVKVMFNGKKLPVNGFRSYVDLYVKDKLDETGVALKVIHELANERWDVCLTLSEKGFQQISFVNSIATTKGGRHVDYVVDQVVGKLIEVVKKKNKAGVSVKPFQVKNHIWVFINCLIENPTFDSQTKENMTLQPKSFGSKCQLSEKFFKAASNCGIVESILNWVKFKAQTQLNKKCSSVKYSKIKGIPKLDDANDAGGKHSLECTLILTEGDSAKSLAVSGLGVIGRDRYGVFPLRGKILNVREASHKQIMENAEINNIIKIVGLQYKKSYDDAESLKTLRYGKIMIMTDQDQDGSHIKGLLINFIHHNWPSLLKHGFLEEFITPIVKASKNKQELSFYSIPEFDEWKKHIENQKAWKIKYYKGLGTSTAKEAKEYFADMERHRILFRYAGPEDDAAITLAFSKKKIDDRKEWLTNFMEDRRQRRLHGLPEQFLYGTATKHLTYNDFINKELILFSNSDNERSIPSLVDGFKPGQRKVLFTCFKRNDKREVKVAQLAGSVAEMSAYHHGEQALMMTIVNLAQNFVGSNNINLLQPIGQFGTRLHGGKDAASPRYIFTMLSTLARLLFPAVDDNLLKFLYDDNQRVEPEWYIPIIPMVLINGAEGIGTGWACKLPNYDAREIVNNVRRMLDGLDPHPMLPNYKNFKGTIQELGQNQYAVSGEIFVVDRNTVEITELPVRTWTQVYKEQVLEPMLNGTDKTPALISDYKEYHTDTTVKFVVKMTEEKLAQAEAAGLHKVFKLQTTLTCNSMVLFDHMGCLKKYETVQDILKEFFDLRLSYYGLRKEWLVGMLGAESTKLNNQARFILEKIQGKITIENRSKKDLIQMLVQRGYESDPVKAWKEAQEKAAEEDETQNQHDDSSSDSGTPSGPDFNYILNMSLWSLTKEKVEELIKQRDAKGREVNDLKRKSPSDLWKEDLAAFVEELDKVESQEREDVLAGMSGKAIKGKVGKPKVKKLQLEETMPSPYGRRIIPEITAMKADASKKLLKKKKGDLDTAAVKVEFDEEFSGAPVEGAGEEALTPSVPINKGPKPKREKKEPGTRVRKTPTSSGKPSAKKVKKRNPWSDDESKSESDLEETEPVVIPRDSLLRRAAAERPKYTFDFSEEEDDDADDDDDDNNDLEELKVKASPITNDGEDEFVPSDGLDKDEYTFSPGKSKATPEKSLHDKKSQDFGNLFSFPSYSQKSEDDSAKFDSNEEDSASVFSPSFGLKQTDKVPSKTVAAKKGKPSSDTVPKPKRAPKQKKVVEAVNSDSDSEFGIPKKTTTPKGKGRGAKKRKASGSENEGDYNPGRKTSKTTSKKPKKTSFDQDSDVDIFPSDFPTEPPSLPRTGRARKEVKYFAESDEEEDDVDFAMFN
T2 sequence (P11388 whole entry): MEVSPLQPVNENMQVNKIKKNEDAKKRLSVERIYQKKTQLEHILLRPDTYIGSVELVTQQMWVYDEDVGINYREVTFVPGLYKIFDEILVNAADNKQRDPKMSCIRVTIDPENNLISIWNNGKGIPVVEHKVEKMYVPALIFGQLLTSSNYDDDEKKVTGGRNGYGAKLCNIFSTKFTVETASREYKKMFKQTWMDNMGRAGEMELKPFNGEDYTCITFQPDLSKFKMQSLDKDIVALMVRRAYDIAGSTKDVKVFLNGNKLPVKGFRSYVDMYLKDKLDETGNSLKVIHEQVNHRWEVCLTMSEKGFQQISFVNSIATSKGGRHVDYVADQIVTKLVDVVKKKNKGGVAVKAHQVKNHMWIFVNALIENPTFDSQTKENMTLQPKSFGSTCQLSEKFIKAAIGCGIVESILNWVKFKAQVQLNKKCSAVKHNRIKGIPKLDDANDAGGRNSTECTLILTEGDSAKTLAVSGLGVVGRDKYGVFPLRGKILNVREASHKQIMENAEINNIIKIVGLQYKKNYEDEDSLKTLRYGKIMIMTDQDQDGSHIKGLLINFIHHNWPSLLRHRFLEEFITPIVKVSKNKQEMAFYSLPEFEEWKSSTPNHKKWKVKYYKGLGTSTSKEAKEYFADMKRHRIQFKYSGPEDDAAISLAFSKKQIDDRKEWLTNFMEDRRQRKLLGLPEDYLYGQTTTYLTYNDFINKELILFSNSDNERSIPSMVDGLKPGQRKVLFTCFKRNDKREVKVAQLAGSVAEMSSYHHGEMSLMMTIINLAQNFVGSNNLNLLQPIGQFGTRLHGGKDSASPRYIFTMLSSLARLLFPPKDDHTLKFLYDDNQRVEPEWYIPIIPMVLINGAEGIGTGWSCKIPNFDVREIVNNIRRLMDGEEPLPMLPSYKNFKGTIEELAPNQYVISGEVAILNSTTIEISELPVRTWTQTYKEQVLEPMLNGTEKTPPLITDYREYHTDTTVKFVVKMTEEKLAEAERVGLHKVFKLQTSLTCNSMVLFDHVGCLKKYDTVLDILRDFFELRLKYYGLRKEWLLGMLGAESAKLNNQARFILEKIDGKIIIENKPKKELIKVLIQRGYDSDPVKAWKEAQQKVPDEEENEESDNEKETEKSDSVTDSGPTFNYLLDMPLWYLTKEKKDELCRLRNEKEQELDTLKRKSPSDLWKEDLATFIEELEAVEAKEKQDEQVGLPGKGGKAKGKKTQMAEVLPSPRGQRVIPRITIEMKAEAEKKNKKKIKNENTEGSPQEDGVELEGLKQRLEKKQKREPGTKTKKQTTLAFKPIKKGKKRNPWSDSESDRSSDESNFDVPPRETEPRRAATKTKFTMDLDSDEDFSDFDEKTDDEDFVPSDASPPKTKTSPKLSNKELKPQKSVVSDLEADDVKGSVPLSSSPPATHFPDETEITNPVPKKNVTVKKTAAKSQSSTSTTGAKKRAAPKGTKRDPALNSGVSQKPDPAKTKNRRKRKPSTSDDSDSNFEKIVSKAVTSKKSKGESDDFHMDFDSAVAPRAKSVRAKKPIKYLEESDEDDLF

- IC50 (TOPOIIβ): 2.07 µM
- number of total cells, as compared to mock-treated control [4]: no significant difference
SMILES: O=c1c(O)c(-c2cc(O)c(O)c(O)c2)oc2cc(O)cc(O)c12 [Compound 1, 3,5,7,3′,4′,5′-hexahydroxyflavone]
- correction of DOX-induced contractile dysfunction (beating, duration, peak height) ([1]; DOX 0.5 μM plus MYR 100 μM, compared to DEX 100 μM): significantly corrected
- rescue of bortezomib-induced cardiotoxicity (cardiomyocytes): rescued bortezomib-induced cardiotoxicity
- protection against DOX-induced DNA double strand break (γH2AX-positive cells) [2]: significant protection
- TOPOIIα mRNA expression (TOPOIIα mRNA expression; DOX plus myricetin): further repressed
- TMRM signal (protection against doxorubicin-induced mitochondrial toxicity) [3]: greater TMRM signal
- correction of cardiac dysfunction [5]: more than 80%
- topoisomerase IIβ protein levels [6]: no effect
- TOPOIIβ mRNA expression (TOPOIIβ mRNA expression; DOX plus myricetin): restored to a level close to normal
- TOPOIIβ mRNA expression (TOPOIIβ mRNA expression; [16]): did not have any effect
- QT prolongation (in words) (patient): no signs of QT prolongation
- cardiac dysfunction in the patient (patient; protective agent 100 mg co-formulated with, or 24 hours before, doxorubicin 10 mg): no indication of cardiac dysfunction

- TOPOIIα Inhibition (TOPOIIα): −
- TOPOIIβ Inhibition (TOPOIIβ): −
- TOPOII (TOPOIIα and TOPOIIβ) inhibition (in words) [12]: did not exhibit any inhibitory effect
SMILES: O=c1c(O)c(-c2ccc(O)cc2)oc2cc(O)cc(O)c12 [Compound 7, 3,5,7,4′-tetrahydroxyflavone]
- percentage of cell death vs doxorubicin in the absence of a protective agent (A549 cells (lung cancer)): no significant difference
- Toxicity ([7]; 100 μM): −
- cytotoxicity / toxic effects to cardiomyocytes (in words) ([7]; listed as Kaempferol): without some level of cytotoxicity at 100 μM
- cytotoxicity / toxic effects to cardiomyocytes (in words) ([7]; listed as kaempferol): did not show toxic effects below 100 μM
- decrease in mitochondrial toxicity vs doxorubicin alone [8]: at least 60%
- cardioprotection (in words) [9]: moderate level of cardioprotection
- percentage of cell death vs doxorubicin in the absence of a protective agent [10]: no significant difference
- number of active electrodes relative to the mock-treated sample (in words) [11]: no observable decrease

SMILES: CC(=O)[C@]1(O)Cc2c(O)c3c(c(O)c2[C@@H](O[C@H]2C[C@H](N)[C@H](O)[C@H](C)O2)C1)C(=O)c1ccccc1C3=O [Idarubicin, idarubicin]
- CC50 at 72 h (in vitro): 590 nM

SMILES: Nc1c(Br)cc(Br)cc1CN[C@H]1CC[C@H](O)CC1 [ambroxol]
- percentage of cell death vs doxorubicin in the absence of a protective agent (A549 cells (lung cancer)): no significant difference
- beat period or field potential duration, as compared to control samples [13]: no appreciable difference
- percentage of cell death vs doxorubicin in the absence of a protective agent [10]: no significant difference
- number of active electrodes relative to the mock-treated sample (in words) [11]: no observable decrease

- IC50 (TOPOIIα; 37° C., 30 min, n=3, read-out: IC50 of TOPOIIα enzyme activity): 52.7 µM
- IC50 (TOPOIIβ): 34.4 µM
- topoisomerase IIβ protein levels [6]: marked disappearance of TOPOIIβ
SMILES: C[C@@H](CN1CC(=O)NC(=O)C1)N1CC(=O)NC(=O)C1 [dexrazoxane]
- percentage of cell death vs doxorubicin in the absence of a protective agent (A549 cells (lung cancer)): no significant difference
- beat period or field potential duration, as compared to control samples [13]: no appreciable difference
- percentage of cell death vs doxorubicin in the absence of a protective agent [10]: no significant difference
- reduction in the number of active electrodes ([11]; 500 dexrazoxane, about 2 days post-treatment): ~50%
- mitochondrial toxicity / protection (TMRM-positive cells) [14]: increase in mitochondrial toxicity

SMILES: COc1cccc2c1C(=O)c1c(O)c3c(c(O)c1C2=O)C[C@@](O)(C(=O)CO)C[C@@H]3O[C@H]1C[C@H](N)[C@H](O)[C@H](C)O1 [doxorubicin, reference compound]
- cardiomyocyte contraction ([1]; DOX 0.5 μM): induced dysfunction in cardiomyocyte contraction
- decrease in the number of active electrodes ([15]; 24 hours): ~50%
- decrease in the number of active electrodes, relative to time zero ([15]; 30 hours): ~95%
- CC50 at 72 h (in vitro): 410 nM
- TOPOIIα mRNA expression (TOPOIIα mRNA expression; DOX alone, over time): slowly repressed
- decrease of ejection fraction (EF) (C57BL/6 mice): 19%
- decrease of fractional shortening (FS) (C57BL/6 mice): 15%
- mitochondrial toxicity / protection (TMRM-positive cells) [14]: increase in mitochondrial toxicity
- TOPOIIβ mRNA expression (TOPOIIβ mRNA expression; [16]): significantly repressed

SMILES: COc1cccc2c1C(=O)c1c(O)c3c(c(O)c1C2=O)C[C@@](O)(C(=O)CO)C[C@@H]3O[C@H]1C[C@H](N)[C@@H](O)[C@H](C)O1 [epirubicin]
- CC50 at 72 h (in vitro): 490 nM

SMILES: Nc1ccc(O)c(C(=O)O)c1 [mesalamine]
- percentage of cell death vs doxorubicin in the absence of a protective agent (A549 cells (lung cancer)): no significant difference
- percentage of cell death vs doxorubicin in the absence of a protective agent [10]: no significant difference
- number of active electrodes relative to the mock-treated sample (in words) [11]: no observable decrease

SMILES: C[C@@H]1O[C@@H](Oc2c(-c3cc(O)c(O)c(O)c3)oc3cc(O)cc(O)c3c2=O)[C@H](O)[C@H](O)[C@H]1O [myricitrin]
- QT prolongation (in words) (patient): no signs of QT prolongation
